Data from US20180118588A1, “CONTROL OF BACTERIAL ACTIVITY, SUCH AS IN SEWERS AND WASTEWATER TREATMENT SYSTEMS” (THE UNIVERSITY OF QUEENSLAND, priority 2010, published 2018).
Like-named read-outs stand apart in the source and are kept apart here.

Assays:
[1] = test system: methanogenic archaea (MA) in sewer biofilm; details: Exp. II
[2] = test system: methanogenic archaea (MA) in sewer biofilm; details: Exp. IV
[3] = test system: sulfate reducing bacteria (SRB) in sewer biofilm; details: Exp. III
Excerpt: (§1) Experiment III aimed to achieve complete inhibition on both sulfide and methane production.

[4] = test system: methanogenic archaea (MA) in sewer biofilm; details: Exp. III
Excerpt: as §1

sewer biofilm cells = details: Exp. III; FNA dosed in the reactors
Excerpt: as §1

[5] = test system: sulfate reducing bacteria (SRB) in sewer biofilm; details: Exp. IV
[6] = test system: sulfate reducing bacteria (SRB) in sewer biofilm; details: Exp. II
anaerobic sewer biofilms = assay: Viability tests with biofilms on carriers from rising main sewer reactors (cell killing capacity, Table 2, FIG. 7-9); format: cell-based; details: for Inactivation of biofilm cells: agent by itself
Experimental: In these experiments, viability tests were carried out with biofilms on carriers from rising main sewer reactors. […]

[7] = test system: methanogenic archaea (MA) in sewer biofilm; details: Exp. I
[8] = test system: sulfate reducing bacteria (SRB) in sewer biofilm; details: Exp. I
[9] = FNA 0.05, 0.08, 0.17 mg-N/L, single dose, 6 hour, pH 6.2
[10] = FNA 0.18 and 0.36 mg-N/L, 24 hours, 4 dosages
[11] = one month after stopping FNA dosage
[12] = in the presence of nitrite, continuous dosing 24 days
[13] = nitrite 20 mg-N/L every 30 minutes for 24 days, pH 8.6~9.2 after dosing

In the case of `O=NO` [FNA, free nitrous acid], the “Inhibition: methane production” value [1, 9] is reported as “Negligible sulfide”, the “Recovery MA” value ([1]; after 1 month) is reported as “MA: 30~50%” and the “Methane after the FNA dosing” value ([1]; all FNA concentrations, 6 hour contact) is reported as “below 20%”. For the same compound, the “Methane production by sewer biofilm” value ([2]; one month after terminating dosage, 828 m downstream vs wet well) was “ceased to produce methane”, the “Inhibition: methane production” value ([2]; real sewer, nitrite 100 mgN/L, pH 6.0, FNA 0.24 mgN/L, 33 hours over three days) was “Negligible sulfide” and the “Inhibition: sulfide production” value [3, 10] was “Negligible sulfide”. For the same compound, the “Recovery SRB” value ([3]; in two months) was “SRB: 70-80% in”, the SRB recovery [3, 11] was “about 70%” and the “Inhibition: methane production” value [4, 10] was “Negligible sulfide”. For the same compound, the “Recovery MA” value ([4]; in two months) was “MA: 40~60%”, the Methanogens activity recovery [4, 11] was 20% and the “Cells in the biofilm killed (FIG. 4B)” value (sewer biofilm cells) was “over 90%”. For the same compound, the Sulfide production ([5]; Day 14) was “zero production”, the “Sulfide production, of the initial level” value ([5]; after 7 days) was 50% and the “Recovery SRB” value ([5]; in three weeks) was “SRB: 100% in”. The “Inhibition: sulfide production” value [6, 9] was “Negligible sulfide”, the “Time to recover to 50% (SRB)” value ([6]; R4, highest FNA (0.17 mg-N/L), 6 hour contact) was 16 days and the “Recovery SRB” value ([6]; after 1 month) was “SRB: 90%;”. For the same compound, the “Inactivation of biofilm cells” value (anaerobic sewer biofilms) was “significantly inactivating biofilm cells” and the “Microbial killing, ranking (FIG. 7)” value (anaerobic sewer biofilms; nitrite 100 mgN/L, pH 6, FNA 0.26 mgN/L, 6 hr, H2O2 30 mg/L, O2 6 mg/L, caustic pH 10.5 for 2 hr after FNA) was “followed by FNA→Caustic, FNA+O2, and FNA”.
For `OO` [H2O2, hydrogen peroxide, reference compound], the “Effect on biocidal effect of acidified nitrite” value (anaerobic sewer biofilms; H2O2 30 mg/L with nitrite 100 mgN/L at pH 6, 6 hr) was “enhanced the biocidal effect of acidified nitrite”.
For `[Na+].[OH-]` [caustic shock, caustic soda, reference compound], the “Inactivation of biofilm cells” value (anaerobic sewer biofilms) was “significantly inactivating biofilm cells”.
`O=NO` [nitrite] was tested, and the “Methane accumulation in the reactor” value [7, 12] was “No sulfide and methane accumulation”, the “Residual activity after treatment: MA” value [7, 13] was “MA: 0.1 mg- mg-COD/L-hr” and the “Sulfide accumulation in the reactor” value [8, 12] was “No sulfide and methane accumulation”. For the same compound, the “Residual activity after treatment: SRB” value [8, 13] was “SRB: 1 mg-S/L- mg-S/L-hr”.
